# Measured values reported in patent publication US9237747B2, “Herbicidal compositions comprising 4-amino-3-chloro-5-fluoro-6-(4-chloro-2-fluoro-3-methoxyphenyl) pyridine-2-carboxylic acid or a derivative thereof and insecticides” (priority 2013, dated 2016).
# Legend:
# ECHCO = test: Postemergence foliar-applied weed control, direct-seeded rice (greenhouse); format: in vivo, Echinochloa colonum
# Method: Seeds or nutlets of the desired test plant species were planted in a soil matrix prepared by mixing a loam or sandy loam soil (e.g., 28.6 percent silt, 18.8 percent clay, and 52.6 percent sand, with a pH of about 5.8 and an organic matter content of about 1.8 percent) and calcareous grit in an 80 to 20 ratio. The soil matrix was contained in plastic pots with a volume of 1 quart and a surface area of 83.6 square centimeters (cm^2). […] The plants were grown for 8-22 days in a greenhouse with an approximate 14 hour (h) photoperiod which was maintained at about 29° C. during the day and 26° C. during the night. Nutrients (Peters Excel® 15-5-15 5-Ca 2-Mg and iron chelate) were applied in the irrigation solution as needed and water was added on a regular basis. Supplemental lighting was provided with overhead metal halide 1000-Watt lamps as necessary. The plants were employed for testing when they reached the first through fourth true leaf stage.
# Treatments consisted of the acid or esters of 4-amino-3-chloro-6-(4-chloro-2-fluoro-3-methoxyphenyl)-5-fluoropyridine-2-carboxylic acid (Compound A), each formulated as an SC (suspension concentrate), and various insecticidal components alone and in combination. Forms of compound A were applied on an acid equivalent basis.
# For treatments comprised of formulated compounds, measured amounts of compounds were placed individually in 25 mL glass vials and diluted in a volume of 1.25% volume per volume (v/v) Agri-Dex® crop oil concentrate to obtain 12× stock solutions. […] Application solutions were prepared by adding an appropriate amount of each stock solution (e.g., 1 mL) and diluted to the appropriate final concentrations with the addition of […] of an aqueous mixture of 1.25% (v/v) crop oil concentrate so that the final spray solutions contained 1.25+/−0.05% (v/v) crop oil concentrate.
# As required, additional water and/or 97:3 v/v acetone/DMSO was added to individual application solutions so that the final acetone and DMSO concentrations of the application solutions being compared were 8.1% and 0.25%, respectively.
# All stock solutions and applications solutions were visually inspected for compound compatibility prior to application. Spray solutions were applied to the plant material with an overhead Mandel track sprayer equipped with 8002E nozzles calibrated to deliver 187 L/ha over an application area of 0.503 square meters (m^2) at a spray height of 18 to 20 inches (46 to 50 cm) above average plant canopy height. Control plants were sprayed in the same manner with the solvent blank.
# (§1) The treated plants and control plants were placed in a greenhouse as described above and watered by sub-irrigation to prevent wash-off of the test compounds. After approximately 3 weeks, the condition of the test plants as compared to that of the untreated plants was determined visually and scored on a scale of 0 to 100 percent where 0 corresponds to no injury or growth inhibition and 100 corresponds to complete kill.
# Colby's equation was used to determine the herbicidal effects expected from the mixtures (Colby, S. R. Calculation of the synergistic and antagonistic response of herbicide combinations. Weeds 1967, 15, 20-22.).
# The following equation was used to calculate the expected activity of mixtures containing two active ingredients, A and B: Expected=A+B−(A×B/100)
# SCPMA = test: In-water applied weed control, transplanted paddy rice (greenhouse); format: in vivo, Schoenoplectus maritimus
# Method: Weed seeds or nutlets of the desired test plant species were planted in puddled soil (mud) prepared by mixing a shredded, non-sterilized mineral soil (50.5 percent silt, 25.5 percent clay, and 24 percent sand, with a pH of about 7.6 and an organic matter content of about 2.9 percent) and water at a 1:1 volumetric ratio. The prepared mud was dispensed in 365 mL aliquots into 16-ounce (oz.) non-perforated plastic pots with a surface area of 86.59 square centimeters (cm^2) leaving a headspace of 3 centimeters (cm) in each pot. Rice seeds were planted in Sun Gro MetroMix® 306 planting mixture, which typically has a pH of 6.0 to 6.8 and an organic matter content of about 30 percent, in plastic plug trays. Seedlings at the second or third leaf stage of growth were transplanted into 860 mL of mud contained in 32-oz. non-perforated plastic pots with a surface area of 86.59 cm^2 4 days prior to herbicide application. The paddy was created by filling the headspace of the pots with 2.5 to 3 cm of water. When required to ensure good germination and healthy plants, a fungicide treatment and/or other chemical or physical treatment was applied. The plants were grown for 4-22 days in a greenhouse with an approximate 14 h photoperiod which was maintained at about 29° C. during the day and about 26° C. during the night. Nutrients were added as Osmocote® (17:6:10, N:P:K+minor nutrients) at 2 grams (g) per 16-oz. pot and 4 g per 32-oz. pot. Water was added on a regular basis to maintain the paddy flood, and supplemental lighting was provided with overhead metal halide 1000-Watt lamps as necessary. The plants were employed for testing when they reached the first through fourth true leaf stage.
# Treatments consisted of the acid or esters of 4-amino-3-chloro-5-fluoro-6-(4-chloro-2-fluoro-3-methoxy-phenyl)pyridine-2-carboxylic acid (compound A) each formulated as an SC (suspension concentrate) and various herbicidal components alone and in combination. Forms of compound A were applied on an acid equivalent basis.
# Other […] components were applied on an active ingredient basis and consisted of etofenprox (technical grade material) and sulfoxaflor formulated as Sulfoxaflor WG.
# Treatment requirements for each compound or herbicidal component were calculated based upon the rates being tested, the concentration of active ingredient or acid equivalent in the formulation, an application volume of 2 mL per component per pot, and an application area of 86.59 cm^2 per pot.
# For formulated compounds, a measured amount was placed in an individual 100 or 200 mL glass vial and was dissolved in a volume of 1.25% (v/v) AgriDex® crop oil concentrate to obtain application solutions.
# For technical grade compounds, a weighed amount was placed in an individual 100 to 200 mL glass vial and was dissolved in a volume of acetone to obtain concentrated stock solutions.
# Applications were made by injecting with a pipetter appropriate amounts of the application solutions, individually and sequentially, into the aqueous layer of the paddy. Control plants were treated in the same manner with the solvent blank. Applications were made so that all treated plant material received the same concentrations of acetone and crop oil concentrate.
# as §1, with “and water was added as needed” for “and watered by sub-irrigation”, “to maintain a paddy flood.” for “to prevent wash-off of the test compounds.”, “3 weeks” for “3 weeks,”, “compared with” for “compared to”
# Colby's equation was used to determine the herbicidal effects expected from the mixtures (Colby, S. R. Calculation of the synergistic and antagonistic response of herbicide combinations. Weeds 1967, 15, 20-22.). […]
compound,measurement,setting,value
"COc1c(Cl)ccc(-c2nc(C(=O)O)c(Cl)c(N)c2F)c1F [Compound A Acid, 4-amino-3-chloro-6-(4-chloro-2-fluoro-3-methoxyphenyl)-5-fluoropyridine-2-carboxylic acid]",Visual Weed Control (%) - 22 DAA ECHCO Obs,ECHCO; 4.38 g ae/ha alone,55%
same,Visual Weed Control (%) - 21 DAA ECHCO Obs,ECHCO; 4.38 g ae/ha alone,60%
same,Visual Weed Control (%) - 21 DAA ECHCO Obs,ECHCO; 8.75 g ae/ha alone,90%
same,Visual Weed Control (%) - 21 DAA ECHCO Obs,ECHCO; 17.5 g ae/ha alone,95%
same,Visual Weed Control (%) - 21 DAA SCPMA Obs,SCPMA; 4.38 g ae/ha alone,0%
same,Visual Weed Control (%) - 21 DAA SCPMA Obs,SCPMA; 8.75 g ae/ha alone,0%
COc1c(Cl)ccc(-c2nc(C(=O)OCc3ccccc3)c(Cl)c(N)c2F)c1F [Compound A Benzyl Ester],Visual Weed Control (%) - 19 DAA ECHCO Obs,ECHCO; 8 g ae/ha alone,65%
same,Visual Weed Control (%) - 20 DAA ECHCO Obs,ECHCO; 8 g ae/ha alone,65%
same,Visual Weed Control (%) - 19 DAA ECHCO Obs,ECHCO; 16 g ae/ha alone,90%
same,Visual Weed Control (%) - 19 DAA ECHCO Obs,"ECHCO; 19 DAA, 8 g ae/ha alone",65%
same,Visual Weed Control (%) - 19 DAA ECHCO Obs,"ECHCO; 19 DAA, 16 g ae/ha alone",90%
same,Visual Weed Control (%) - 19 DAA ECHCO Obs,"ECHCO; 19 DAA, 32 g ae/ha alone",95%
same,Visual Weed Control (%) - 19 DAA ECHCO Obs,ECHCO; 32 g ae/ha alone,95%
same,Visual Weed Control (%) - 21 DAA SCPMA Obs,"SCPMA; 21 DAA, 4.38 g ae/ha alone",0%
same,Visual Weed Control (%) - 21 DAA SCPMA Obs,"SCPMA; 21 DAA, 8.75 g ae/ha alone",0%
same,Visual Weed Control (%) - 21 DAA SCPMA Obs,"SCPMA; 21 DAA, 17.5 g ae/ha alone",0%
"CC(c1ccc(C(F)(F)F)nc1)S(C)(=O)=NC#N (stereo not drawn) [Sulfoxaflor, N-[methyloxido[1-[6-(trifluoromethyl)-3-pyridinyl]ethyl]-λ^4-sulfanylidene]cyanamide]",Visual Weed Control (%) - 21 DAA ECHCO Obs,ECHCO; 12.5 g ai/ha alone,0%
same,Visual Weed Control (%) - 21 DAA ECHCO Obs,ECHCO; 25 g ai/ha alone,0%
same,Visual Weed Control (%) - 21 DAA ECHCO Obs,ECHCO; 50 g ai/ha alone,0%
same,Visual Weed Control (%) - 21 DAA SCPMA Obs,"SCPMA; 21 DAA, 50 g ai/ha alone",0%
same,Visual Weed Control (%) - 21 DAA SCPMA Obs,SCPMA; 50 g ai/ha alone,0%
